The text below walks through data of article PMC7737769, “Pharmacological inhibition of syntenin PDZ2 domain impairs breast cancer cell activities and exosome loading with syndecan and EpCAM cargo” (Journal of Extracellular Vesicles, 2020).

Assay type in all cases: cell-based
One assay deals with MCF‐7 cells. The assay can be described thus: Soft agar colony formation assay. The following applies: wild-type MCF-7, 100 µM. The method, then: Agarose was melted in water and mixed with DMEM‐F12 medium pre‐incubated at 37°C to reach a 0.6% or a 0.36 % final concentration. A lower layer of 0.6% agarose was deposited in each well of a 96‐well plate except that the first and last rows and columns of the plate were filled with PBS to avoid drying. Agarose was allowed to cool for 15 min before the upper layer containing different concentrations of cells, a final concentration of 0.36% agarose and compounds (100 µM) was added. Compounds were added only once at the beginning of experiment. Each condition was tested in triplicate. Colonies were kept at 37°C in a 5% CO2 incubator and daily observed under microscope. At the end of the experiment, cells were tested for their ATP content, an indicator of their metabolic activity, using the Promega kit G7570. In this assay, ATP is used as a co‐factor for a luciferase reaction. Signals were analysed by measuring luminescence with a LUMIstar luminometer (BMG Labtech).

The next assay concerns MCF‐7 SyntKO cells. The assay can be described thus: Wound-healing (migration) assay, MCF-7 SyntKO. Conditions: 100 µM, 24 h. Here is the method:
For migration assays, cells were treated with 1 ng/ml of mitomycin (Sigma M4287) overnight to inhibit cell division. Treated cells were plated in Ibidi culture‐inserts (Ibidi Cat‐80206) for 12 h to reach 90%–95% of confluence with or without compounds (100 µM). A wound was created by removing inserts from the dishes. Medium with or without compounds (100 µM) was refreshed to remove dead cells and the cells were observed under an inverted light microscope (Leica SP2) equipped with a camera. Images were taken by MetaMorph software every 10 min for 24 h. Measurements of cell velocity were calculated using the MetaMorph software.

Assay [1] relates to MCF‐7 cells (exosomal markers). The assay can be described thus: Western blot of exosomal fractions (exosome cargo). The following applies: CAY10594 10 µM, 16 h. Here is the method: For comparative analyses, exosome‐enriched fractions were collected from equivalent amounts of culture medium, conditioned by equivalent amounts of cells. MCF‐7 cells were treated with indicated compounds or with DMSO 0.2% as control, in medium containing exosome‐depleted FCS (10%). After 16 h, cell media were collected and exosomes were isolated by three sequential centrifugation steps at 4 °C: 10 min at 500 × g, to remove cells; 30 min at 10,000 × g, to remove cell debris; and 1h30min at 100,000 × g, to pellet exosomes (exosome‐enriched fraction), followed by one wash with 1400 µl of PBS1X (100,000 × g, 1 h), to remove soluble serum and secreted proteins. Exosomal pellets were then re‐suspended in 100 µl of PBS1X. The lysates from corresponding cultures were cleared by centrifugation at 1500 rpm for 5 min and then resuspended in lysis buffer (TrisHCL pH 7.4 30 mM, NaCl 150 mM, 1% NP40 (IGEPAL), 1 µg/ml aprotinin, 1 µg/ml leupeptin). Although only little variations were observed from sample to sample, exosomal amounts loaded for the western blot were normalized according to the number of parent cells from where exosomes were secreted.
The proteins were heat‐denaturated in Laemmli sample buffer, fractionated in 12.5% or 15% gels by SDS–PAGE and electro‐transferred to nitrocellulose membrane. Membranes were stained with Ponceau red and immunoblotted with the indicated primary antibodies for: CD9 (1/5000), CD63 (1/5000), CD81 (1/5000) and ADAM10 (1/1000) antibodies provided by E. Rubinstein (Charrin et al., 2001) (Université Paris‐Sud UMRS_935, Villejuif); syntenin (Homemade (Kashyap et al., 2015); 1/3000), Tubulin (Sigma‐Aldrich; 1/10,000), ALIX (Homemade (Baietti et al., 2012); 1/500), HSP70 (Santa Cruz Biotechnology; 1/500), Flotillin‐1 (BD Biosciences; 1/1000), EGFR (Cell Signaling; 1/1000), EpCAM (Santa Cruz Biotechnology; 1/200), Fibronectin (BD Biosciences; 1/5000), Src (Cell signaling; 1/1000), TSP1 (Lab Vision; 1/100), SDC1 intracellular domain (Homemade (Baietti et al., 2012); 1/1000), SDC4 intracellular domain (Abnova; 1/2000), and HRP‐conjugated secondary antibodies (Mouse or Rabbit, Thermofisher scientific; 1/10,000). Signals were visualized using Amersham ECL Prime Western Blotting Detection Reagent (GE Healthcare).
Background: Immunoblotting shows a protein as a band on a membrane.

With `CC(C)[C@H](NC(=O)CSc1ccc(Cl)cc1)C(=O)O` [Compound C58], in the assay on MCF‐7 cells, the “colony formation in soft agar” value is recorded as “decreases”. In addition, the “cell migration (wound closure)” value with MCF‐7 SyntKO cells is listed as “no such effect”.

Consider `CC(C)[C@H](NC(=O)CCSc1ccc(Cl)cc1)C(=O)O` [SyntOFF, (S)‐2‐(3‐(4‐chlorophenylthio)propanamido)‐3‐methylbutanoic acid], for which, in assay [1] (SyntOFF 100 µM), the “exosomal ADAM10 signal” value is recorded as “unaffected”, the “exosomal CD81” value is reported as “that was not the case”, the “exosomal EGFR signal” value is “unaffected” and the “exosomal TSP1 signal” value is “unaffected”. For the same compound, in assay [1] (SyntOFF 100 µM), the exosomal fibronectin signal entry is given as “unaffected”, the “incorporation of EpCAM into exosomes” value is “markedly decrease” and the “incorporation of c‐Src into exosomes” value is listed as “markedly decrease”. In assay [1] (cSyntOFF, C58, SyntOFF 100 µM), the “amount of exosomal ALIX” value is on record as “significantly decreased”, the “amount of exosomal SDC4 C‐terminal fragment (CTF)” value was “significantly decreased” and the “amount of exosomal syntenin” value is “significantly decreased”.
